Patent US20230181546A1, “TREATMENT OF RESPIRATORY DISEASES WITH AMINO ACID COMPOUNDS” (Pliant Therapeutics, Inc., priority 2020, published 2023)

Molecular target: recombinant human integrin αVβ6 (Homo sapiens, UniProt P06756+P18564)
Assay: Solid phase integrin αVβ6 binding assay (Examples B1, B2)
Details: TGFβ1 LAP binding, values given in four ranges, read-out: αvβ6 Inhibition IC50 (nM) - range
Description: (§1) Microplates were coated with recombinant human integrin αVβ6 (2 μg/mL) in PBS (100 μL/well 25° C., overnight). The coating solution was removed, washed with wash buffer (0.05% Tween 20: 0.5 mM MnCl2; in 1×TBS). The plate was blocked with 200 μL/well of Block Buffer (1% BSA; 5% sucrose; 0.5 mM MnCl2; in 1×TBS) at 37° C. for 2 h. Dilutions of testing compounds and recombinant TGFβ1 LAP (0.67 μg/mL) in binding buffer (0.05% BSA; 2.5% sucrose; 0.5 mM MnCl2; in 1×TBS) were added. The plate was incubated for 2 hours at 25° C., washed, and incubated for 1 hour with Biotin-Anti-hLAP. Bound antibody was detected by peroxidase-conjugated streptavidin. The IC50 values for testing compounds were calculated by a four-parameter logistic regression.
The compounds tested were compound samples prepared according to procedures described in the Synthetic Examples section, with the stereochemical purity as indicated in the Examples.
as §1, with “A third series of exemplary compounds was selected for testing in the solid phase integrin αVβ6 binding assay. The compounds tested were compound samples prepared according to procedures described in the Synthetic Examples section, with the stereochemical purity as indicated in the Examples. As in Example B1, microplates” for “Microplates”, “20;” for “20:”

recombinant human integrin αVβ6, sequence (P06756 31-992 limits assumed): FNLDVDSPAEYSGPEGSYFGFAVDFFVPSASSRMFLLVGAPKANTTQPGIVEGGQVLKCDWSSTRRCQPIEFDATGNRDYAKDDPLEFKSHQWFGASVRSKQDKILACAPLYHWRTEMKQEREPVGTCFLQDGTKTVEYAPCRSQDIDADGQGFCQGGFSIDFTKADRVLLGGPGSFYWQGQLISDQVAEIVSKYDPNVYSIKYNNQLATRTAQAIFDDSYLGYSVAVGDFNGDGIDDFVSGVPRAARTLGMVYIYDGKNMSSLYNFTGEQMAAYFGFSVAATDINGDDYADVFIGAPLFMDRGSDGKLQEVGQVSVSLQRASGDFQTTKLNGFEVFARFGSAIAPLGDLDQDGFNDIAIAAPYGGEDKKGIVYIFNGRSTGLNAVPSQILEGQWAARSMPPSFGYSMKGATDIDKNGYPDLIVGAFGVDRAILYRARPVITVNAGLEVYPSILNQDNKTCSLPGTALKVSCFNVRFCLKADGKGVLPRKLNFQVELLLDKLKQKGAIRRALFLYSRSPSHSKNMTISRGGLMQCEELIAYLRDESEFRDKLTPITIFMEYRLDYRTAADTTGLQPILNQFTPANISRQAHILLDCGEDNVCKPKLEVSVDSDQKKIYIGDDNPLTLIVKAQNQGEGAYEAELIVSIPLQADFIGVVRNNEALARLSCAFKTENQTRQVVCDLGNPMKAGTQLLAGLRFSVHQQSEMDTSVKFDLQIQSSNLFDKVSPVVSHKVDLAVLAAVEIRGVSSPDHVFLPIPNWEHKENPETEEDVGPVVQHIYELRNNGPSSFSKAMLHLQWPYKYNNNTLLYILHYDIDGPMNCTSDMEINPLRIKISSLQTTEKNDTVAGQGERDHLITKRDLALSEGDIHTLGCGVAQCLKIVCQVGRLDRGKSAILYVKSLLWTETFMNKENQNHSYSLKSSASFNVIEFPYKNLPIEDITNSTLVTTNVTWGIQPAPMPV
recombinant human integrin αVβ6, sequence (P18564 22-707 limits assumed): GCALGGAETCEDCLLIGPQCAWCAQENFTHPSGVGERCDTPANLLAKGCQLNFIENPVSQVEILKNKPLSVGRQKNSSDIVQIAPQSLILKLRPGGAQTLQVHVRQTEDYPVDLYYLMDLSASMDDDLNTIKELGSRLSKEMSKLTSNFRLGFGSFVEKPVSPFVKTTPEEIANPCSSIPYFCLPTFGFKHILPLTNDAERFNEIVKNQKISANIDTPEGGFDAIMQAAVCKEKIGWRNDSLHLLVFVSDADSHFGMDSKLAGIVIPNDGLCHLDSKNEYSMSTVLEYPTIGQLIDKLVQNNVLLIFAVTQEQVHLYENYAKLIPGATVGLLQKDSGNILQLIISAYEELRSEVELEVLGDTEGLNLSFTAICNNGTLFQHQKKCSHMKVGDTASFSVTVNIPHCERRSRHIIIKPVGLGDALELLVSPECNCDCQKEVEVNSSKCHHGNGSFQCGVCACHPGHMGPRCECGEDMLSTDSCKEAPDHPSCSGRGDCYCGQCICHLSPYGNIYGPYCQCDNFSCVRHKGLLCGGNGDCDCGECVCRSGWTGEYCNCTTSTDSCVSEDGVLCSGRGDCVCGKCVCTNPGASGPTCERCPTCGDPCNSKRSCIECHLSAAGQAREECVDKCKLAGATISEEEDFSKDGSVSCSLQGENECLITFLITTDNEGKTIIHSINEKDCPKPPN

SMILES	IC50 [nM]
Cc1ncccc1OCCN(CCCCc1ccc2c(n1)NCCC2)CC[C@H](Nc1ncnc2cccnc12)C(=O)O [Compound 54, (S)-4-((2-((2-methylpyridin-3-yl)oxy)ethyl) (4-(5,6,7,8-tetrahydro-1,8-naphthyridin-2-yl)butyl)amino)-2-(pyrido[3,2-d]pyrimidin-4-ylamino) butanoic acid]	< 50
COCCN(CCCCc1ccc2c(n1)NCCC2)CC[C@H](Nc1cc(C(F)F)ncn1)C(=O)O [Compound 23, (S)-2-((6-(difluoromethyl)pyrimidin-4-yl)amino)-4-((2-methoxyethyl) (4-(5,6,7,8-tetrahydro-1,8-naphthyridin-2-yl)butyl)amino) butanoic acid]	< 50
CO[C@H](C)CN(CCCCc1ccc2c(n1)NCCC2)CC[C@H](Nc1ncc(Br)cn1)C(=O)O [Compound 70, (S)-2-((5-bromopyrimidin-2-yl)amino)-4-(((R)-2-methoxypropyl) (4-(5,6,7,8-tetrahydro-1,8-naphthyridin-2-yl)butyl)amino) butanoic acid]	< 50
O=C(O)[C@H](CCN(CCCCc1ccc2c(n1)NCCC2)CCOC(F)F)Nc1ncnc2ccccc12 [Compound 35, (S)-4-((2-(difluoromethoxy)ethyl) (4-(5,6,7,8-tetrahydro-1,8-naphthyridin-2-yl)butyl)amino)-2-(quinazolin-4-ylamino) butanoic acid]	< 50

Further lines, results first:

IC50 [nM]	SMILES
< 50	O=C(O)[C@H](CCN(CCCCc1ccc2c(n1)NCCC2)CCOc1ccccc1)Nc1ccnc(C(F)(F)F)n1 [Compound 92, (S)-4-((2-phenoxyethyl) (4-(5,6,7,8-tetrahydro-1,8-naphthyridin-2-yl)butyl)amino)-2-((2-(rifluoromethyl)pyrimidin-4-yl)amino) butanoic acid]
< 50	O=C(O)[C@H](CCN(CCCCc1ccc2c(n1)NCCC2)CCOc1ccccc1)Nc1ncc(Br)cn1 [Compound 83, (S)-2-((5-bromopyrimidin-2-yl)amino)-4-((2-phenoxyethyl) (4-(5,6,7,8-tetrahydro-1,8-naphthyridin-2-yl)butyl)amino) butanoic acid]
> 1000	O=C(O)[C@H](CCN(CCCCc1ccc2c(n1)NCCC2)CC(F)F)Nc1ccncn1 [Compound 120, (S)-4-((2,2-difluoroethyl) (4-(5,6,7,8-tetrahydro-1,8-naphthyridin-2-yl)butyl)amino)-2-(pyrimidin-4-ylamino) butanoic acid]
